Test results as given in the supplement of paper PMC11061612.

How the values were obtained:
AZD2811 = compound: CCN(CCO)CCCOc1ccc2c(Nc3cc(CC(=O)Nc4cccc(F)c4)[nH]n3)ncnc2c1 [AZD2811]; details: max 1 µM
Procedure, shortened: (§1)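 Plates with 1536 wells received cancer cell lines in 7.5 μl of DMEM/F12 or RPMI containing 10% FBS. After 24 hours at 37°C and 5% CO2, cells were dosed for 72 hours with final DMSO typically 0.2%, and viability was read by CellTiter-Glo 2.0 luminescence scaled between blank-well and DMSO-well means. The single-agent IC50 was taken from a logistic fit of the dose responses made with a non-linear mixed effects model, that logistic curve having two parameters.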

Palbociclib = compound: CC(=O)c1c(C)c2cnc(Nc3ccc(N4CCNCC4)cn3)nc2n(C2CCCC2)c1=O [Palbociclib]; details: max 10 µM
Procedure, shortened: as §1

Crizotinib = compound: C[C@@H](Oc1cc(-c2cnn(C3CCNCC3)c2)cnc1N)c1c(Cl)ccc(F)c1Cl [Crizotinib]; details: max 10 µM
Procedure, shortened: as §1

Gefitinib = compound: COc1cc2ncnc(Nc3ccc(F)c(Cl)c3)c2cc1OCCCN1CCOCC1 [Gefitinib]; details: max 10 µM
Procedure, shortened: as §1

Savolitinib = compound: C[C@@H](c1ccc2nccn2c1)n1nnc2ncc(-c3cnn(C)c3)nc21 [Savolitinib]; details: max 1 µM
Procedure, shortened: as §1

Venetoclax = compound: CC1(C)CCC(CN2CCN(c3ccc(C(=O)NS(=O)(=O)c4ccc(NCC5CCOCC5)c([N+](=O)[O-])c4)c(Oc4cnc5[nH]ccc5c4)c3)CC2)=C(c2ccc(Cl)cc2)C1 [Venetoclax]; details: max 1 µM
Procedure, shortened: as §1

Paclitaxel = compound: CC(=O)O[C@H]1C(=O)[C@@]2(C)[C@H]([C@H](OC(=O)c3ccccc3)[C@]3(O)C[C@H](OC(=O)[C@H](O)[C@@H](NC(=O)c4ccccc4)c4ccccc4)C(C)=C1C3(C)C)[C@]1(OC(C)=O)CO[C@@H]1C[C@@H]2O [Paclitaxel]; details: max 3 µM
Procedure, shortened: as §1

AZD1775 = compound: C=CCn1c(=O)c2cnc(Nc3ccc(N4CCN(C)CC4)cc3)nc2n1-c1cccc(C(C)(C)O)n1 [AZD1775]; details: max 3 µM
Procedure, shortened: as §1

AZD1390 = compound: CC(C)n1c(=O)n(C)c2cnc3cc(F)c(-c4ccc(OCCCN5CCCCC5)nc4)cc3c21 [AZD1390]; details: max 0.3 µM
Procedure, shortened: as §1

AZD6738 = compound: C[C@@H]1COCCN1C2=NC(=NC(=C2)C3(CC3)[S@](=N)(=O)C)C4=C5C=CNC5=NC=C4 [AZD6738]; details: max 10 µM
Procedure, shortened: as §1

Taselisib = compound: Cc1nc(-c2cn3c(n2)-c2ccc(-c4cnn(C(C)(C)C(N)=O)c4)cc2OCC3)n(C(C)C)n1 [Taselisib]; details: max 10 µM
Procedure, shortened: as §1

AZD5991 = compound: Cc1c2c(nn1C)CSCc1cc(n(C)n1)CSc1cc(c3ccccc3c1)OCCCc1c(C(=O)O)n(C)c3c-2c(Cl)ccc13 [AZD5991]; details: max 1 µM
Procedure, shortened: as §1

AZD7648 = compound: Cc1cc2ncnn2cc1Nc1ncc2c(n1)n(C1CCOCC1)c(=O)n2C [AZD7648]; details: max 10 µM
Procedure, shortened: as §1

SN-38 = compound: CCc1c2c(nc3ccc(O)cc13)-c1cc3c(c(=O)n1C2)COC(=O)[C@]3(O)CC [SN-38]; details: max 0.3 µM
Procedure, shortened: as §1

MK-2206 = compound: NC1(c2ccc(-c3nc4ccn5c(=O)[nH]nc5c4cc3-c3ccccc3)cc2)CCC1 [MK-2206]; details: max 10 µM
Procedure, shortened: as §1

Olaparib = compound: O=C(c1cc(Cc2n[nH]c(=O)c3ccccc23)ccc1F)N1CCN(C(=O)C2CC2)CC1 [Olaparib]; details: max 10 µM
Procedure, shortened: as §1

Gemcitabine = compound: Nc1ccn([C@@H]2O[C@H](CO)[C@@H](O)C2(F)F)c(=O)n1 [Gemcitabine]; details: max 0.3 µM
Procedure, shortened: as §1

Trametinib = compound: CC(=O)Nc1cccc(-n2c(=O)n(C3CC3)c(=O)c3c(Nc4ccc(I)cc4F)n(C)c(=O)c(C)c32)c1 [Trametinib]; details: max 1 µM
Procedure, shortened: as §1

AZD4320 = compound: CN(CC[C@H](CSC1=CC=CC=C1)NC2=C(C=C(C=C2)S(=O)(=O)NC(=O)C3=CC=C(C=C3)N4CCC(CC4)[C@H](C5=CC=CC=C5C6=CC=C(C=C6)Cl)O)S(=O)(=O)C(F)(F)F)CCO [AZD4320]; details: max 1 µM
Procedure, shortened: as §1

Prexasertib = compound: COc1cccc(OCCCN)c1-c1cc(Nc2cnc(C#N)cn2)n[nH]1 [Prexasertib]; details: max 1 µM
Procedure, shortened: as §1

Selumetinib = compound: Cn1cnc2c(F)c(Nc3ccc(Br)cc3Cl)c(C(=O)NOCCO)cc21 [Selumetinib]; details: max 10 µM
Procedure, shortened: as §1

[1] = compound: O=C(Nc1ccc2[nH]nc(-c3ccncc3)c2c1)[C@@H]1CCN(CC(=O)N2CCN(c3ccc(-c4ncccn4)cc3)CC2)C1; details: max 5 µM
Procedure, shortened: as §1

Lapatinib = compound: CS(=O)(=O)CCNCc1ccc(-c2ccc3ncnc(Nc4ccc(OCc5cccc(F)c5)c(Cl)c4)c3c2)o1 [Lapatinib]; details: max 10 µM
Procedure, shortened: as §1

Alisertib = compound: COc1cc(Nc2ncc3c(n2)-c2ccc(Cl)cc2C(c2c(F)cccc2OC)=NC3)ccc1C(=O)O [Alisertib]; details: max 10 µM
Procedure, shortened: as §1

AZD0156 = compound: CN(C)CCCOc1ccc(-c2ccc3ncc4c(c3c2)n(C2CCOCC2)c(=O)n4C)cn1 [AZD0156]; details: max 3 µM
Procedure, shortened: as §1

AZD5363 = compound: C1CN(CCC1(C(=O)N[C@@H](CCO)C2=CC=C(C=C2)Cl)N)C3=NC=NC4=C3C=CN4 [AZD5363]; details: max 10 µM
Procedure, shortened: as §1

AZD5153 = compound: COc1nnc2ccc(N3CCC(c4ccc(OCCN5CCN(C)C(=O)[C@H]5C)cc4)CC3)nn12 [AZD5153]; details: max 1 µM
Procedure, shortened: as §1

Carboplatin = compound: C1CC(C1)(C(=O)[O-])C(=O)[O-].N.N.[Pt+2] [Carboplatin]; details: max 10 µM
Procedure, shortened: as §1

AZD8186 = compound: C[C@@H](Nc1cc(F)cc(F)c1)c1cc(C(=O)N(C)C)cc2c(=O)cc(N3CCOCC3)oc12 [AZD8186]; details: max 10 µM
Procedure, shortened: as §1

Etoposide = compound: COc1cc([C@@H]2c3cc4c(cc3[C@@H](O[C@@H]3O[C@@H]5CO[C@@H](C)O[C@H]5[C@H](O)[C@H]3O)[C@H]3COC(=O)[C@H]23)OCO4)cc(OC)c1O [Etoposide]; details: max 10 µM
Procedure, shortened: as §1

Doxorubicin = compound: COc1cccc2c1C(=O)c1c(O)c3c(c(O)c1C2=O)C[C@@](O)(C(=O)CO)C[C@@H]3O[C@H]1C[C@H](N)[C@H](O)[C@H](C)O1 [Doxorubicin]; details: max 1 µM
Procedure, shortened: as §1

SRA737 = compound: N#Cc1cnc(Nc2cc(NC[C@H]3CNCCO3)c(C(F)(F)F)cn2)cn1 [SRA737]; details: max 10 µM
Procedure, shortened: as §1

SG3199 = compound: CC1=CN2[C@@H](C1)C=NC3=CC(=C(C=C3C2=O)OC)OCCCCCOC4=C(C=C5C(=C4)N=C[C@@H]6CC(=CN6C5=O)C)OC [SG3199]; details: max 0.001 µM
Procedure, shortened: as §1

Dasatinib = compound: CC1=C(C(=CC=C1)Cl)NC(=O)C2=CN=C(S2)NC3=CC(=NC(=N3)C)N4CCN(CC4)CCO [Dasatinib]; details: max 2 µM
Procedure, shortened: as §1

5-Fluorouracil = compound: O=c1[nH]cc(F)c(=O)[nH]1 [5-Fluorouracil]; details: max 20 µM
Procedure, shortened: as §1

| Cell Line | IC50, cell viability 72 h (AZD2811) [nM] | IC50, cell viability 72 h (Palbociclib) [µM] | IC50, cell viability 72 h (Crizotinib) [µM] | IC50, cell viability 72 h (Gefitinib) [µM] | IC50, cell viability 72 h (Savolitinib) [nM] | IC50, cell viability 72 h (Venetoclax) [nM] | IC50, cell viability 72 h (Paclitaxel) [nM] | IC50, cell viability 72 h (AZD1775) [nM] | IC50, cell viability 72 h (AZD1390) [nM] | IC50, cell viability 72 h (AZD6738) [µM] | IC50, cell viability 72 h (Taselisib) [nM] | IC50, cell viability 72 h (AZD5991) [nM] | IC50, cell viability 72 h (AZD7648) [µM] | IC50, cell viability 72 h (SN-38) [nM] | IC50, cell viability 72 h (MK-2206) [µM] | IC50, cell viability 72 h (Olaparib) [µM] | IC50, cell viability 72 h (Gemcitabine) [nM] | IC50, cell viability 72 h (Trametinib) [nM] | IC50, cell viability 72 h (AZD4320) [nM] | IC50, cell viability 72 h (Prexasertib) [nM] | IC50, cell viability 72 h (Selumetinib) [µM] | IC50, cell viability 72 h [1] [µM] | IC50, cell viability 72 h (Lapatinib) [µM] | IC50, cell viability 72 h (Alisertib) [µM] | IC50, cell viability 72 h (AZD0156) [nM] | IC50, cell viability 72 h (AZD5363) [µM] | IC50, cell viability 72 h (AZD5153) [nM] | IC50, cell viability 72 h (Carboplatin) [µM] | IC50, cell viability 72 h (AZD8186) [µM] | IC50, cell viability 72 h (Etoposide) [nM] | IC50, cell viability 72 h (Doxorubicin) [nM] | IC50, cell viability 72 h (SRA737) [µM] | IC50, cell viability 72 h (SG3199) [nM] | IC50, cell viability 72 h (Dasatinib) [nM] | IC50, cell viability 72 h (5-Fluorouracil) [µM] |
| --- | --- | --- | --- | --- | --- | --- | --- | --- | --- | --- | --- | --- | --- | --- | --- | --- | --- | --- | --- | --- | --- | --- | --- | --- | --- | --- | --- | --- | --- | --- | --- | --- | --- | --- | --- |
| MN-60 (B-Lymphoblastic Leukemia) | > 1000 | > 10 | > 10 | > 10 | > 1000 | > 1000 | 674 | > 3000 | > 300 | > 10 | > 10000 | > 1000 | > 10 | 14.6 | > 10 | > 10 | 213 | > 1000 | > 1000 | > 1000 | > 10 | > 5 | > 10 | > 10 | > 3000 | > 10 | 111 | > 10 | > 10 | > 10000 | > 1000 | > 10 | > 1 | > 2000 | > 20 |
| M059J (Glioblastoma) | > 1000 | > 10 | > 10 | > 10 | > 1000 | > 1000 | 17.6 | 933 | > 300 | > 10 | > 10000 | > 1000 | > 10 | 14.1 | > 10 | > 10 | 90.9 | > 1000 | > 1000 | 241 | > 10 | > 5 | > 10 | 4.06 | > 3000 | > 10 | 164 | > 10 | > 10 | 2590 | 230 | > 10 | > 1 | 1390 | > 20 |
| T-T (Esophageal Squamous Cell Carcinoma) | > 1000 | > 10 | > 10 | > 10 | > 1000 | > 1000 | 29.3 | 1770 | > 300 | > 10 | 2980 | 341 | > 10 | 115 | > 10 | > 10 | > 300 | > 1000 | > 1000 | 350 | > 10 | > 5 | > 10 | > 10 | > 3000 | > 10 | > 1000 | > 10 | > 10 | > 10000 | > 1000 | > 10 | > 1 | > 2000 | > 20 |
| VMRC-RCZ (Kidney Carcinoma) | > 1000 | > 10 | > 10 | > 10 | > 1000 | > 1000 | > 3000 | > 3000 | > 300 | > 10 | > 10000 | > 1000 | > 10 | > 300 | > 10 | > 10 | > 300 | > 1000 | > 1000 | > 1000 | > 10 | > 5 | > 10 | > 10 | > 3000 | > 10 | > 1000 | > 10 | > 10 | > 10000 | > 1000 | > 10 | > 1 | > 2000 | > 20 |
| NCI-H929 (Plasma Cell Myeloma) | > 1000 | > 10 | 0.982 | > 10 | > 1000 | > 1000 | 4.54 | 1060 | > 300 | 5.41 | 23.6 | 17.5 | 2.27 | 13.1 | 0.0699 | > 10 | 12.1 | 32.9 | > 1000 | 179 | 3.13 | 0.981 | > 10 | > 10 | 1150 | 0.106 | 13.4 | > 10 | 0.728 | 1250 | 548 | > 10 | > 1 | > 2000 | 7.15 |
